Source: patent US20240336660A1 (priority 2021, published 2024)
*: point of attachment. Decanoyl = CCCCCCCCCC(=O)*; CH2Cl = ClC*

Assays:
Htet1/SD614G cells = type: cell-based, human; conditions: for effect on trafficking of Spike to lysosomes: 20 hours, 50 μM dynasore, 20 μM pitstop2, 1 μM nocodazole, 43 nM bafilomycin
[1] = system: doxycycline-induced Htet1/SW1 cells; type: cell-based, human

Row | Molecule | effect on trafficking of Spike to lysosomes (Htet1/SD614G cells) | also measured
1 | O=C(N/N=C/c1ccc(O)c(O)c1)c1cc2ccccc2cc1O [dynasore] | Neither had a noticeable impact on the trafficking of Spike to lysosomes | –
2 | COC(=O)Nc1nc2ccc(C(=O)c3cccs3)cc2[nH]1 [nocodazole] | had no effect | –
3 | O=C1NC(=NS(=O)(=O)c2cccc3ccccc23)S/C1=C\c1ccc(Br)cc1 [pitstop2] | Neither had a noticeable impact on the trafficking of Spike to lysosomes | –
4 | Decanoyl-RVKR-CH2Cl | – | effect on Spike cell surface expression and furin-mediated processing [1]: reduced Spike's cell surface expression and furin-mediated processing
5 | bafilomycin | redirected Spike into the Golgi and plasma membranes, preventing its accumulation in lysosomes | –
6 | vacuolin-1 | – | Spike localization after vacuolin-1 treatment (Htet1/SD614G cells; vacuolin-1 10 μg/ml for three hours): Spike localization to lysosome membranes was also apparent
